Results taken from PubChem BioAssay AID977605 (Broad Institute, 2014).
The source made the active and inactive calls.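 The calls were made as follows: active = fitted curve reaches 40% activation below the top valid tested dose, in every test run; inconclusive = test runs disagree on the call; inactive = the rest, including effects opposite to the expected direction.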

Assay: E-selectin inducers in HUVECs, dose response, imaging, HUVEC, cherry-picked samples (AID 977605);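 also: signal is the share of imaged cells scored positive for E-selectin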
Details: HUVEC E-selectin immunostaining, percent of TNF-alpha response over vehicle

Row | Compound | activation (at 19.5 µM (top of the series)) | further results
1 | COc1ccc(S(=O)(=O)N(C)C[C@H]2Oc3ccc(NC(=O)Nc4c(C)noc4C)cc3C(=O)N([C@H](C)CO)C[C@H]2C)cc1 | 0.58% (inactive) | –
2 | O=C(NC1CCCC1)c1cc(-c2ccccc2O)on1 | 0.323% (inactive) | –
3 | CC(C)(C)c1ccc(NC(=O)N2CCCN(c3ccc([N+](=O)[O-])cn3)CC2)cc1 | 0.154% (inactive) | –
4 | O=C(CCC(=O)N1CCOCC1)Nc1ccc(Cl)c(Cl)c1 | 0.295% (inactive) | –
5 | COc1ccc(CN2CCN(C(=O)c3ccccc3C(=O)c3ccccc3)CC2)cc1OC | 0.003% (inactive) | –
6 | C[C@@H]1CN([C@@H](C)CO)C(=O)c2cc(NC(=O)CCN3CCOCC3)ccc2O[C@H]1CN(C)Cc1ccncc1 | – | activation (at 21 µM (top of the series)): -0.05% (inactive)
7 | Cc1ccc(NC(=O)CN2CCOCC2)cc1Cl | 0.043% (inactive) | –
8 | CC(C)NC(=O)Nc1cccc2c1O[C@H](CN(C)Cc1ccncc1)[C@@H](C)CN([C@H](C)CO)C2=O | – | activation (at 21 µM (top of the series)): 0.115% (inactive)
9 | C[C@H](CO)N1C[C@H](C)[C@@H](CN(C)Cc2ccc(C(F)(F)F)cc2)Oc2c(NS(C)(=O)=O)cccc2C1=O | -0.122% (inactive) | –
10 | C[C@H](CO)N1C[C@H](C)[C@@H](CN(C)Cc2ccc(C(F)(F)F)cc2)Oc2ccc(N(C)C)cc2CC1=O | 0.906% (inactive) | –
11 | C[C@@H]1CN([C@H](C)CO)C(=O)c2c(c3ccccc3n2C)-c2ccccc2CO[C@@H]1CN(C)Cc1ccccc1C(F)(F)F | – | activation (at 10 µM (top of the series)): 0.002% (inactive)
12 | COc1ccc(S(=O)(=O)N(C)C[C@H]2Oc3ccc(NC(=O)c4ccncc4)cc3C(=O)N([C@H](C)CO)C[C@@H]2C)cc1 | -0.104% (inactive) | –
13 | Cc1ccc(S(=O)(=O)N(C)C[C@H]2Oc3ccc(NC(=O)CCCN(C)C)cc3C(=O)N([C@H](C)CO)C[C@H]2C)cc1 | -0.247% (inactive) | –
14 | C[C@H](CO)N1C[C@H](C)[C@@H](CN(C)C)Oc2c(NC(=O)CCCCCC(=O)Nc3ccccc3N)cccc2C1=O | – | activation (at 21 µM (top of the series)): -0.097% (inactive)
15 | C[C@H](CO)N1C[C@H](C)[C@@H](CN(C)Cc2ccc(Oc3ccccc3)cc2)Oc2ccc(NC(=O)Nc3ccc(C(F)(F)F)cc3)cc2C1=O | 0.27% (inactive) | –
16 | C[C@@H]1CN([C@H](C)CO)C(=O)c2cccc(NC(=O)C3CC3)c2O[C@H]1CN(C)CC1CC1 | – | activation (at 21 µM (top of the series)): -0.061% (inactive)
17 | COc1ccc(NC(=O)Nc2cccc3c2O[C@@H](CN(C)C(=O)NC2CCCCC2)[C@H](C)CN([C@H](C)CO)C3=O)cc1 | 0.507% (inactive) | –
18 | C[C@@H]1CN([C@H](C)CO)C(=O)c2cc(C3=CCCC3)cnc2O[C@@H]1CN(C)C(=O)Nc1ccccc1 | 0.119% (inactive) | –
19 | C[C@@H]1CN([C@H](C)CO)C(=O)c2cc(NC(=O)Cn3cnnn3)ccc2O[C@H]1CN(C)S(=O)(=O)c1ccccc1 | 0% (inactive) | –
20 | C[C@H]1CN([C@@H](C)CO)C(=O)c2cc(N(C)C)ccc2O[C@H]1CN(C)C(=O)Nc1ccc2c(c1)OCO2 | 2.2% (inactive) | –
21 | C[C@@H]1CN([C@H](C)CO)C(=O)Cc2cc(NC(=O)Nc3ccc(F)cc3)ccc2O[C@@H]1CN(C)S(=O)(=O)c1cn(C)cn1 | – | activation (at 21 µM (top of the series)): -0.103% (inactive)
22 | c1ccc(Nc2nnc(-c3cccnc3)s2)cc1 | 0.863% (inactive) | –
23 | CCn1c(CNc2ccc(Cl)cc2)nnc1SCC#N | -0.124% (inactive) | –
24 | Cc1cc2cc(CNC(=O)c3ccc(S(=O)(=O)N4CCCCC4)cc3)ccc2n1C | 0.135% (inactive) | –
25 | C[C@H]1CN([C@@H](C)CO)C(=O)c2cc(NC(=O)NC3CCCCC3)ccc2O[C@@H]1CN(C)S(=O)(=O)c1ccc(Cl)cc1 | 2.58% (inactive) | –
26 | CC(C)NC(=O)Nc1cccc2c1O[C@H](CN(C)Cc1ccc(Cl)c(Cl)c1)[C@@H](C)CN([C@@H](C)CO)C2=O | 0.01% (inactive) | –
27 | COc1ccc(S(=O)(=O)Nc2ccc3c(c2)C(=O)N([C@@H](C)CO)C[C@@H](C)[C@@H](CN(C)C(=O)Nc2cccc4ccccc24)O3)cc1 | -0.103% (inactive) | –
28 | CN(Cc1ccsc1)C(=O)CCc1nnc(CCCc2ccccc2)o1 | 1.14% (inactive) | –
29 | Cc1ccc(NCc2n[nH]c(=S)n2-c2ccccc2)cc1 | 1.12% (inactive) | –
